Among the data in ChEMBL document CHEMBL4393686, “InCl3 mediated heteroarylation of indoles and their derivatization via CH activation strategy: Discovery of 2-(1H-indol-3-yl)-quinoxaline derivatives as a new class of PDE4B selective inhibitors for arthritis and/or multiple sclerosis” (Eur J Med Chem, 2019) are inhibition values, retold here.

Active and inactive are the calls of the source. The rule behind the calls is not given here.

In this test the test system is Rattus norvegicus. Description: Antiinflammatory activity in complete Freund's adjuvant-induced Wistar rat arthritis model assessed as reduction in IL1beta expression in serum at 30 mg/kg, ip administered from 11th day to 20th day by ELISA. The test is classed as functional, organism-based.

With `C=CCn1cc(-c2nc3ccccc3nc2Cl)c2cc(OC)ccc21`, the inhibition entry was “Active”.
